{"source": "patent US20130310256A1", "about": "“HERBICIDAL COMPOSITIONS COMPRISING 4-AMINO-3-CHLORO-5-FLUORO-6-(4-CHLORO-2-FLUORO-3-METHOXYPHENYL) PYRIDINE-2-CARBOXYLIC ACID OR A DERIVATIVE THEREOF AND VLCFA AND LIPID SYNTHESIS INHIBITING HERBICIDES” (DOW AGROSCIENCES LLC, priority 2008, published 2013)", "assay_in_all_cases": "Example I: postemergence foliar-applied weed control, greenhouse", "key": {"[1]": {"tested_on": "CYPIR", "type": "in vivo, Cyperus iria L. (rice flatsedge)", "outline": "(§1)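 Plants grown in loam/sandy loam–calcareous grit soil (80:20) in greenhouse, 14 hr photoperiod, about 29° C. day/26° C. night, treated postemergence at first to fourth true leaf stage. Foliar spray at 187 L/ha with 1.25% (v/v) crop oil concentrate; Compound A dosed on acid equivalent basis, partners on active ingredient basis.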"}, "[2]": {"tested_on": "ECHCG", "type": "in vivo, Echinochloa crus-galli (L.) Beauv. (barnyardgrass)", "conditions": "for Visual Weed Control (%) - 22 DAA ECHCG Obs / Visual Weed Control (%) - 20 DAA ECHCG Obs: foliar", "outline": "as §1"}, "[3]": {"tested_on": "ECHCO", "type": "in vivo, Echinochloa colona (L.) Link (junglerice)", "conditions": "for Visual Weed Control Obs: 20 DAA", "outline": "as §1"}}, "note": "Where “and” joins values, the source holds several entries; their conditions need not be identical. Equal values may be shown once."}
{"smiles": "CCN(CC)C(=O)n1cnc(S(=O)(=O)c2c(C)cc(C)cc2C)n1", "note": "[Cafenstrole, N,N-diethyl-3-[(2,4,6-trimethylphenyl)sulfonyl]-1H-1,2,4-triazole-1-carboxamide]", "values": [{"measurement": "Visual Weed Control Obs", "setting": "[1]; 21 DAA, 26.25 gai/ha Lapost Flowable", "value": 0, "unit": "%"}, {"measurement": "Visual Weed Control Obs", "setting": "[1]; 21 DAA, 52.5 gai/ha Lapost Flowable", "value": 0, "unit": "%"}, {"measurement": "Visual Weed Control Obs", "setting": "[1]; 21 DAA, 105 gai/ha Lapost Flowable", "value": 0, "unit": "%"}, {"measurement": "Visual Weed Control Obs", "setting": "[2]; 20 DAA, 26.25 gai/ha Himeadow WP", "value": 10, "unit": "%"}, {"measurement": "Visual Weed Control Obs", "setting": "[2]; 20 DAA, 52.5 gai/ha Himeadow WP", "value": 15, "unit": "%"}, {"measurement": "Visual Weed Control Obs", "setting": "[2]; 20 DAA, 105 gai/ha Himeadow WP", "value": 15, "unit": "%"}, {"measurement": "Visual Weed Control Obs", "setting": "[2]; 21 DAA, 210 gai/ha Lapost Flowable", "value": 0, "unit": "%"}, {"measurement": "Visual Weed Control Obs", "setting": "[3]; 26.25 gai/ha Himeadow WP", "value": 10, "unit": "%"}, {"measurement": "Visual Weed Control Obs", "setting": "[3]; 52.5 gai/ha Himeadow WP", "value": 10, "unit": "%"}, {"measurement": "Visual Weed Control Obs", "setting": "[3]; 105 gai/ha Himeadow WP", "value": 10, "unit": "%"}]}
{"smiles": "COc1c(Cl)ccc(-c2nc(C(=O)OCc3ccccc3)c(Cl)c(N)c2F)c1F", "note": "[Compound A Benzyl Ester, benzyl ester of 4-amino-3-chloro-5-fluoro-6-(4-chloro-2-fluoro-3-methoxy-phenyl)pyridine-2-carboxylic acid]", "values": [{"measurement": "Visual Weed Control (%) - 21 DAA CYPIR Obs", "setting": "[1]; 8 gae/ha, foliar", "value": 30, "unit": "%"}, {"measurement": "Visual Weed Control (%) - 22 DAA CYPIR Obs", "setting": "[1]; 16 gae/ha, foliar", "value": 60, "unit": "%"}, {"measurement": "Visual Weed Control Obs", "setting": "[1]; 20 DAA, 4.38 gae/ha", "value": 80, "unit": "%"}, {"measurement": "Visual Weed Control (%) - 22 DAA ECHCG Obs", "setting": "[2]; 5.3 gae/ha", "value": 40, "unit": "%"}, {"measurement": "Visual Weed Control (%) - 20 DAA ECHCG Obs", "setting": "[2]; 8 gae/ha", "value": 63, "unit": "%"}, {"measurement": "Visual Weed Control (%) - 22 DAA ECHCG Obs", "setting": "[2]; 8 gae/ha", "value": 25, "unit": "%"}, {"measurement": "Visual Weed Control (%) - 22 DAA ECHCG Obs", "setting": "[2]; 10.6 gae/ha", "value": 60, "unit": "%"}, {"measurement": "Visual Weed Control (%) - 20 DAA ECHCG Obs", "setting": "[2]; 16 gae/ha", "value": 78, "unit": "%"}, {"measurement": "Visual Weed Control (%) - 22 DAA ECHCG Obs", "setting": "[2]; 16 gae/ha", "value": 50, "unit": "%"}, {"measurement": "Visual Weed Control Obs", "setting": "[2]; 20 DAA, 4.38 gae/ha", "value": 70, "unit": "%"}, {"measurement": "Visual Weed Control Obs", "setting": "[2]; 20 DAA, 8.75 gae/ha", "value": 70, "unit": "%"}, {"measurement": "Visual Weed Control Obs", "setting": "[2]; 20 DAA, 16 gae/ha", "value": 78, "unit": "%"}, {"measurement": "Visual Weed Control Obs", "setting": "[2]; 20 DAA, 32 gae/ha", "value": 83, "unit": "%"}, {"measurement": "Visual Weed Control (%) - 20 DAA ECHCG Obs", "setting": "[2]; 32 gae/ha", "value": 83, "unit": "%"}, {"measurement": "Visual Weed Control (%) - 22 DAA ECHCG Obs", "setting": "[2]; 32 gae/ha", "value": 85, "unit": "%"}, {"measurement": "Visual Weed Control (%) - 22 DAA ECHCO Obs", "setting": "[3]; 5.3 gae/ha, foliar", "value": 30, "unit": "%"}, {"measurement": "Visual Weed Control (%) - 19 DAA ECHCO Obs", "setting": "[3]; 8 gae/ha, foliar", "value": 65, "unit": "%"}, {"measurement": "Visual Weed Control (%) - 20 DAA ECHCO Obs", "setting": "[3]; 8 gae/ha, foliar", "value": 40, "unit": "%"}, {"measurement": "Visual Weed Control (%) - 22 DAA ECHCO Obs", "setting": "[3]; 10.6 gae/ha, foliar", "value": 55, "unit": "%"}, {"measurement": "Visual Weed Control (%) - 20 DAA ECHCO Obs", "setting": "[3]; 16 gae/ha, foliar", "value": 60, "unit": "%"}, {"measurement": "Visual Weed Control Obs", "setting": "[3]; 4.38 gae/ha", "value": 60, "unit": "%"}, {"measurement": "Visual Weed Control Obs", "setting": "[3]; 8.75 gae/ha", "value": "85% and 70%"}, {"measurement": "Visual Weed Control (%) - 20 DAA ECHCO Obs", "setting": "[3]; 32 gae/ha, foliar", "value": 90, "unit": "%"}]}
{"smiles": "CCCOCCN(C(=O)CCl)c1c(CC)cccc1CC", "note": "[Pretilachlor, 2-chloro-N-(2,6-diethylphenyl)-N-(2-propoxyethyl)acetamide]", "values": [{"measurement": "Visual Weed Control Obs", "setting": "[1]; 20 DAA, 37.5 gai/ha", "value": 0, "unit": "%"}, {"measurement": "Visual Weed Control Obs", "setting": "[1]; 20 DAA, 75 gai/ha", "value": 0, "unit": "%"}, {"measurement": "Visual Weed Control Obs", "setting": "[1]; 20 DAA, 150 gai/ha", "value": 0, "unit": "%"}, {"measurement": "Visual Weed Control Obs", "setting": "[2]; 20 DAA, 37.5 gai/ha", "value": 10, "unit": "%"}, {"measurement": "Visual Weed Control Obs", "setting": "[2]; 20 DAA, 75 gai/ha", "value": 10, "unit": "%"}, {"measurement": "Visual Weed Control Obs", "setting": "[2]; 20 DAA, 150 gai/ha", "value": 0, "unit": "%"}, {"measurement": "Visual Weed Control Obs", "setting": "[3]; 37.5 gai/ha", "value": 0, "unit": "%"}, {"measurement": "Visual Weed Control Obs", "setting": "[3]; 75 gai/ha", "value": 0, "unit": "%"}, {"measurement": "Visual Weed Control Obs", "setting": "[3]; 150 gai/ha", "value": 0, "unit": "%"}]}
{"smiles": "CCS(=O)(=O)Oc1ccc2c(c1)C(C)(C)CO2", "note": "[Benfuresate, 2,3-dihydro-3,3-dimethyl-5-benzofuranyl ethanesulfonate]", "values": [{"measurement": "Visual Weed Control (%) - 22 DAA CYPIR Obs", "setting": "[1]; 150 gai/ha, foliar", "value": 0, "unit": "%"}, {"measurement": "Visual Weed Control (%) - 22 DAA CYPIR Obs", "setting": "[1]; 300 gai/ha, foliar", "value": 10, "unit": "%"}, {"measurement": "Visual Weed Control (%) - 22 DAA ECHCG Obs", "setting": "[2]; 75 gai/ha", "value": 0, "unit": "%"}, {"measurement": "Visual Weed Control (%) - 22 DAA ECHCG Obs", "setting": "[2]; 150 gai/ha", "value": 0, "unit": "%"}, {"measurement": "Visual Weed Control (%) - 22 DAA ECHCG Obs", "setting": "[2]; 300 gai/ha", "value": 0, "unit": "%"}, {"measurement": "Visual Weed Control (%) - 22 DAA ECHCO Obs", "setting": "[3]; 75 gai/ha, foliar", "value": 0, "unit": "%"}, {"measurement": "Visual Weed Control (%) - 22 DAA ECHCO Obs", "setting": "[3]; 150 gai/ha, foliar", "value": 0, "unit": "%"}, {"measurement": "Visual Weed Control (%) - 22 DAA ECHCO Obs", "setting": "[3]; 300 gai/ha, foliar", "value": 0, "unit": "%"}]}
{"smiles": "COc1c(Cl)ccc(-c2nc(C(=O)O)c(Cl)c(N)c2F)c1F", "note": "[Compound A Acid, 4-amino-3-chloro-6-(4-chloro-2-fluoro-3-methoxyphenyl)-5-fluoropyridine-2-carboxylic acid]", "values": [{"measurement": "Visual Weed Control (%) - 22 DAA CYPIR Obs", "setting": "[1]; 5.3 gae/ha, foliar", "value": 60, "unit": "%"}, {"measurement": "Visual Weed Control Obs", "setting": "[1]; 20 DAA, 4.38 gae/ha", "value": 40, "unit": "%"}, {"measurement": "Visual Weed Control Obs", "setting": "[1]; 21 DAA, 4.38 gae/ha", "value": 70, "unit": "%"}, {"measurement": "Visual Weed Control (%) - 22 DAA ECHCG Obs", "setting": "[2]; 5.3 gae/ha", "value": 65, "unit": "%"}, {"measurement": "Visual Weed Control (%) - 22 DAA ECHCG Obs", "setting": "[2]; 10.6 gae/ha", "value": 55, "unit": "%"}, {"measurement": "Visual Weed Control Obs", "setting": "[2]; 20 DAA, 4.38 gae/ha", "value": "60% and 50%"}, {"measurement": "Visual Weed Control Obs", "setting": "[2]; 21 DAA, 17.5 gae/ha", "value": 88, "unit": "%"}, {"measurement": "Visual Weed Control Obs", "setting": "[2]; 21 DAA, 35 gae/ha", "value": 85, "unit": "%"}, {"measurement": "Visual Weed Control (%) - 22 DAA ECHCO Obs", "setting": "[3]; 5.3 gae/ha, foliar", "value": 65, "unit": "%"}, {"measurement": "Visual Weed Control (%) - 22 DAA ECHCO Obs", "setting": "[3]; 10.6 gae/ha, foliar", "value": 65, "unit": "%"}, {"measurement": "Visual Weed Control Obs", "setting": "[3]; 4.38 gae/ha", "value": "65% and 40% and 70%"}, {"measurement": "Visual Weed Control Obs", "setting": "[3]; 8.75 gae/ha", "value": "85% and 60%"}]}
